Laboratory results: patent US12377104B1, “Methods for treating a fatty liver disease” (Madrigal Pharmaceuticals, Inc., priority 2024, dated 2025)

Tests used:
NASH patients = assay: MAESTRO-NAFLD-1 100 mg open label non-cirrhotic NASH arm, 52 weeks; type: in vivo, human
Description: The 169 patient, 100 mg open label (OL) arm completed the 52 week study in July 2021.
Eligibility required at least 3 metabolic risk factors (Metabolic syndrome), fibroscan kilopascals (kPa) consistent with ≥F1 fibrosis stage, and MRI-PDFF≥8%. The primary and key secondary endpoints of MAESTRO-NAFLD-1 including safety, relative percent reduction of MRI-PDFF (week 16), LDL cholesterol (LDL-C) (week 24), apolipoprotein B and triglycerides, fibroscan and 52 week endpoints were analyzed in the OL arm.
Mean age was 55.7 (11.5 Standard Deviation (SD)), female 69%, BMI 35.8 (6.0), diabetes 43%, hypertension 62%, dyslipidemia >70%, atherosclerotic cardiovascular disease (ASCVD) score 11.5%; fibroscan (kPa 7.7 (3.6)), and MRI-PDFF 17% (7%). […] Liver volume (LV) was elevated at baseline (2202 cm3 (535)) by […] relative to normal controls and −15% after correction for BMI (Euro J of Radiol 106, 2018, 32-37). […] LV reduction was 2-3 fold greater than predicted by % reduction in MRI-PDFF, a measure of liver fat content (Clin Gastroenterol Hepatol. 2015 13: 561-568); LY-corrected mean MRI-PDFF reduction was −63% (2.4%). […] At week 52, magnetic resonance elastography (MRE) (−0.34, p=0.03); fibroscan controlled attenuation parameter (CAP) (−39 (4.6)) and vibration-controlled transient elastography (VCTE) (−1.87; −20%) (p<0.0001) were reduced relative to baseline.

[1] = system: NASH patients with and without possible MetALD; assay: MAESTRO-NASH: possible MetALD subgroup; type: in vivo, human; conditions: for Fibrosis Improvement, % of patients / Fibrosis Improvement, number of patients / NASH Resolution, % of patients / NASH Resolution, number of patients: Week 52
Description: Analyses were performed on 782 patients who had both a baseline and Week 52 biopsy. Patients with a self-declared consumption of alcohol ≤2 drinks/day for men and ≤1.5 drinks/day for women were included as per usual MASH diagnostic recommendations. However, in attempt to objectify undisclosed moderate alcohol consumption above those limits, at baseline or during the trial, CDT measurements were performed longitudinally in all patients over 52 weeks. Post-randomization, a phosphatidylethanol (PEth) test was performed in patients tested for alcohol consumption based on increased liver enzymes ALT, AST and/or GGT (<2%). Those with increased PEth were included as MetALD. Patients with baseline or post-baseline CDT>2.5% (ULN 2.47) and/or a PEth>20 ng/mL (ULN 20 ng/mL) were assigned to a “possible MetALD” subgroup (possible increased alcohol consumption).

[2] = MASH/NASH (low alcohol), 80 mg (n = 224)
[3] = MASH/NASH (low alcohol), 100 mg
[4] = MASH/NASH (low alcohol), 100 mg (n = 228)
[5] = low or no alcohol consumption, 80 mg
[6] = low or no alcohol consumption, 100 mg

CC(C)c1cc(Oc2c(Cl)cc(-n3nc(C#N)c(=O)[nH]c3=O)cc2Cl)n[nH]c1=O [Resmetirom, 2-(3,5-dichloro-4-((5-isopropyl-6-oxo-1,6-dihydropyridazin-3-yl)oxy)phenyl)-3,5-dioxo-2,3,4,5-tetrahydro-1,2,4-triazine-6-carbonitrile]
ALT decrease from baseline (NASH patients): −20 IU
AST decrease from baseline (NASH patients): −11 IU
Blood pressure (systolic, diastolic) change (NASH patients): −2 mmHg
GGT decrease from baseline (NASH patients): −25 IU
LDL-C change (NASH patients): −22%
LV reduction greater than predicted by % reduction in MRI-PDFF (NASH patients): 2-3 fold
LV-corrected mean MRI-PDFF reduction (NASH patients): −63%
apolipoprotein-B change (NASH patients): −24%
triglycerides change (NASH patients): −24%
bone mineral density (DEXA) (NASH patients; 52 weeks): unchanged
safety (NASH patients; 52 weeks): No safety flags
LV change (NASH patients; week 16): −21%
LV change (NASH patients; week 52): −23%
reduction of MRI-PDFF (NASH patients; week 52): −53%
MRI-PDFF ≥30% reduction, % of patients ([1]; MASH/NASH (low alcohol), 80 mg): (59.2%)
MRI-PDFF ≥30% reduction, patients/evaluated ([1]; MASH/NASH (low alcohol), 80 mg): 109/184
Fibrosis Improvement, % of patients [1, 2]: 29%
Fibrosis Improvement, number of patients [1, 2]: 65
NASH Resolution, % of patients [1, 2]: 29.9%
NASH Resolution, number of patients [1, 2]: 67
MRI-PDFF ≥30% reduction, % of patients [1, 3]: (71.2%)
MRI-PDFF ≥30% reduction, patients/evaluated [1, 3]: 136/191
Fibrosis Improvement, % of patients [1, 4]: 33.3%
Fibrosis Improvement, number of patients [1, 4]: 76
NASH Resolution, % of patients [1, 4]: 36%
NASH Resolution, number of patients [1, 4]: 82
MRI-PDFF ≥30% reduction, % of patients ([1]; MetALD, 80 mg): (88%)
MRI-PDFF ≥30% reduction, patients/evaluated ([1]; MetALD, 80 mg): 23/26
Fibrosis Improvement, % of patients ([1]; MetALD, 80 mg (n = 34)): 35%
Fibrosis Improvement, number of patients ([1]; MetALD, 80 mg (n = 34)): 12
NASH Resolution, % of patients ([1]; MetALD, 80 mg (n = 34)): 29%
NASH Resolution, number of patients ([1]; MetALD, 80 mg (n = 34)): 10
MRI-PDFF ≥30% reduction, % of patients ([1]; MetALD, 100 mg): (81%)
MRI-PDFF ≥30% reduction, patients/evaluated ([1]; MetALD, 100 mg): 13/16
Fibrosis Improvement, % of patients ([1]; MetALD, 100 mg (n = 20)): 30%
Fibrosis Improvement, number of patients ([1]; MetALD, 100 mg (n = 20)): 6
NASH Resolution, % of patients ([1]; MetALD, 100 mg (n = 20)): 35%
NASH Resolution, number of patients ([1]; MetALD, 100 mg (n = 20)): 7
NASH resolution, patients [1, 5]: 29.9%
fibrosis improvement, patients [1, 5]: 29%
≥30% reduction from baseline in MRI-PDFF, patients [1, 5]: 59.2%
NASH resolution, patients [1, 6]: 36%
fibrosis improvement, patients [1, 6]: 33.3%
≥30% reduction from baseline in MRI-PDFF, patients [1, 6]: 71.2%
NASH resolution, patients ([1]; possible MetALD, 80 mg): 29%
fibrosis improvement, patients ([1]; possible MetALD, 80 mg): 35%
≥30% reduction from baseline in MRI-PDFF, patients ([1]; possible MetALD, 80 mg): 88%
NASH resolution, patients ([1]; possible MetALD, 100 mg): 35%
fibrosis improvement, patients ([1]; possible MetALD, 100 mg): 30%
≥30% reduction from baseline in MRI-PDFF, patients ([1]; possible MetALD, 100 mg): 81%
